Results from US9012497B2, “Cyclohexyl carbamate compounds as active anti-cellulite ingredients” (Symrise AG, priority 2010, dated 2015).

These compounds were tested against T1, lipoprotein lipase (LPL) (Mus musculus, UniProt P11152) (assay: Inhibition of LPL (lipogenesis assay), MUF oleate hydrolysis). Settings: LPL obtained from differentiated 3T3-L1 cells; mean values of at least 2 independent tests.
T1 construct: endogenous in cells; host or cells: differentiated 3T3-L1 cells (mouse); heparin-released supernatant
T1 sequence (P11152 28-474): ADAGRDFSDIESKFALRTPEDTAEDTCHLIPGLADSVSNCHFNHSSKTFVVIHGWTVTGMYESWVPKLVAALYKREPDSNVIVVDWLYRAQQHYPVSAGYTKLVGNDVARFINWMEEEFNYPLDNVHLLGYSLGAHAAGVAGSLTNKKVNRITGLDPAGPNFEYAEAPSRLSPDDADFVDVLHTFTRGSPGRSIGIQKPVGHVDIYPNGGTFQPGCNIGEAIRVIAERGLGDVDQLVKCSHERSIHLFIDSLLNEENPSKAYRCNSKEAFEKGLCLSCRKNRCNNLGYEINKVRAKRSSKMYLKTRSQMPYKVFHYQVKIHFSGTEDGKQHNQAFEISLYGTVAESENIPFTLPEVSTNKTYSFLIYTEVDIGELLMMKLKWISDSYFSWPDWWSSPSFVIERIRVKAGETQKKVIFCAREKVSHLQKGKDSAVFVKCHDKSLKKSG
Assay type: biochemical
Description: (§1) Lipogenesis is perceived as the storage of triglycerides in adipocytes. The inhibition of this storage can take place by means of the inhibition of the activity of extracellular lipoprotein lipase (LPL) in that the hydrolysis of extracellular triglycerides and therefore the absorption of free fatty acids by adipocytes are reduced. As a preliminary test, the inhibition of pancreatic lipase (PL) is investigated.
The results of the inhibition of the PL are used as a preliminary test and are confirmed on LPL. To obtain LPL, 3T3-L1 cells (mouse embryonic fibroblast-like adipocyte cell line) are seeded in a 6-well plate with collagen I-coating in a concentration of 3×10^5 cells/well. The cultivation and differentiation of the cells takes place analogously to the details in Example 2 (adipogenesis assay). During the differentiation LPL is increasingly expressed. The LPL is present in a membrane-bound state and is released by one hour incubation with heparin solution at 2-8° C. to the supernatant of the cells.
The LPL thus obtained, in the presence of test substances in different use concentrations, has methylumbelliferyl oleate (MUF oleate) added as the substrate. Fluorescent methylumbelliferyl (MUF) is produced by hydrolysis of the MUF oleate by LPL and is quantified. The inhibition of the hydrolysis of the MUF oleate is a measure of the inhibition of the activity of the LPL and therefore the lipogenesis.
[formula] wherein MUF test substance=MUF concentration of the wells with test substance and with LPL MUF control=MUF concentration of the wells without test substance, but with LPL MUF control without LPL=MUF concentration of the wells without test substance and without LPL
The IC50 is calculated from the inhibition of the LPL [%] in a series of dilutions of tested samples. This is the concentration at which the activity of the LPL and therefore the lipogenesis is 50% inhibited.
`CCCCNC(=O)OC1C(C)CCC(C)C1C` (stereo not drawn) [BIO1617, Butyl-carbamic acid 2,3,6-trimethyl-cyclohexyl ester] was tested, and the IC50 was 0.61 mM.
Compound `CCCCNC(=O)OC1CCCCC1C(C)C` (stereo not drawn) [BIO1841, Butyl-carbamic acid 2-isopropyl-cyclohexyl ester] has an IC50 of 1.2 mM.
`CCC(C)NC(=O)OC1CCCC(C)C1C` (stereo not drawn) [BIO1845, sec-Butyl-carbamic acid 2,3-dimethyl-cyclohexyl ester] showed an IC50 of 1.44 mM.

Each compound was assayed against T2, pancreatic lipase (PL) (Sus scrofa, UniProt P00591) (assay: Inhibition of PL, MUF oleate hydrolysis). Settings: mean values of at least 2 independent tests.
T2 construct: purchased Sigma-Aldrich
T2 sequence (P00591 1-450): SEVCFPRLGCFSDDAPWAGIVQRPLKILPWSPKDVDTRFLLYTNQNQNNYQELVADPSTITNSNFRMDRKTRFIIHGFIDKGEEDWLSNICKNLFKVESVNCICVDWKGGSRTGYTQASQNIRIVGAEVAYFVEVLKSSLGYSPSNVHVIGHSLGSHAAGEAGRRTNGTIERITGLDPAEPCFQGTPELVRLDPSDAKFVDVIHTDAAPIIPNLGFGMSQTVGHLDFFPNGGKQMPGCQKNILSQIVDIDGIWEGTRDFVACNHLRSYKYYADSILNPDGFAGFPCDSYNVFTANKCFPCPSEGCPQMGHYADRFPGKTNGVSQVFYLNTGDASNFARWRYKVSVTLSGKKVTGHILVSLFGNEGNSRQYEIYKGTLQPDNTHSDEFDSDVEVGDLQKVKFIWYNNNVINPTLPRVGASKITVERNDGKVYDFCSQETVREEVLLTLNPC
Assay type: biochemical
Description: as §1
PL (Sigma-Aldrich), in the presence of test substances in different use concentrations has methylumbelliferyl oleate (MUF oleate) added as a substrate. Fluorescent methylumelliferon (MUF), is produced by hydrolysis of the MUF oleate by PL and is quantified. The inhibition of the hydrolysis of the MUF oleate is a measure of the inhibition of activity of the PL.
[formula] wherein MUF test substance=MUF concentration of the wells with test substance and with PL MUF control=MUF concentration of the wells without test substance, but with PL MUF control without PL=MUF concentration of the wells without test substance and without PL
The IC50 is calculated from the inhibition of the PL [%] in a series of dilutions of tested samples. This is the concentration, at which the activity of the PL is 50% inhibited.
Work on `CCCCNC(=O)OC1C(C)CCC(C)C1C` (stereo not drawn) [BIO1617, Butyl-carbamic acid 2,3,6-trimethyl-cyclohexyl ester] yielded an IC50 of 1380 µM.
`CCCCNC(=O)OC1CCCCC1C(C)C` (stereo not drawn) [BIO1841, Butyl-carbamic acid 2-isopropyl-cyclohexyl ester] gave an IC50 of 780 µM.
Work on `CCC(C)NC(=O)OC1CCCC(C)C1C` (stereo not drawn) [BIO1845, sec-Butyl-carbamic acid 2,3-dimethyl-cyclohexyl ester] yielded an IC50 of 720 µM.

The compounds below were run on ex vivo pig skin model including subcutis fat layer (assay: Lipolysis assay, ex vivo pig skin model, free glycerol release). Settings: conc. 0.1% in cosmetic test preparation, topical on ex vivo pig skin, 24 hours, versus placebo.
Assay type: cell-based
Description: Full thickness pig skin patches (pig skin model including subcutis fat layer as described in EP 1 939 279) are excised from the dorsal part of young pig slaughtered for meat. The ex vivo pig skin models have a size of 7×3 mm (diameter×height). They are placed on a titanium grid dipped in culture medium. On top of the skin samples formulations are applied. In parallel to a cosmetic test preparation containing one or more compounds of formula (I) a placebo preparation without any compound of formula (I) is applied as reference (blank).
After 24 hours of incubation, the quantification of free glycerol in the medium surrounding the pig skin models was performed. The glycerol is released by the cells after hydrolysis of triglycerides in the cells of the adipose tissue and is a measure of the lipolysis of the pig skin models. The quantification of the free glycerol is carried out based on an enzymatic method with a free glycerol reagent.
Cosmetic Test Preparation:
Phases A and B are heated to 70° C. separately. Pemulen TR1 as well as Ultrez-21 are dispersed in phase B when heated to 70° C. Phase B/C is added to phase A by mixing with an Ultra Turrax, followed by emulsifying. Phase D is slowly added to phase A/B/C using a paddle mixer and a pH 5.5-6 is adjusted. The formulation is cooled down while mixing with a paddle mixer. Phase E is prepared by dissolving one or more compounds of formula (I) in Hydrolite-5. Subsequently, phase E is added to the mixture of phase A-D.
The stimulation of the lipolysis in the presence of test substances is calculated according to the following equation:
[formula] wherein A test substance=absorption of the wells with medium of ex vivo skin models, on which the formulation containing the test substance was applied A placebo=absorption of the wells with medium of ex vivo skin models, on which the placebo without test substance was applied
`CCCCNC(=O)OC1C(C)CCC(C)C1C` (stereo not drawn) [BIO1617, Butyl-carbamic acid 2,3,6-trimethyl-cyclohexyl ester] was tested, and the Stimulation of lipolysis was 21%.
`CCCCNC(=O)OC1CCCCC1C(C)C` (stereo not drawn) [BIO1841, Butyl-carbamic acid 2-isopropyl-cyclohexyl ester] showed a Stimulation of lipolysis of 25%.
In the case of `CCC(C)NC(=O)OC1CCCC(C)C1C` (stereo not drawn) [BIO1845, sec-Butyl-carbamic acid 2,3-dimethyl-cyclohexyl ester], the Stimulation of lipolysis is reported as 29%.
